Results reported in patent US9108943B2, “Photoreactive benzamide probes for histone deacetylase 2” (THE BOARD OF TRUSTEES OF THE UNIVERSITY OF ILLINOIS, priority 2013, dated 2015).
One block for each molecule: values may come before it.

Experiments:
recombinant human HDAC2 = molecular target: T1, recombinant human HDAC2 (Homo sapiens, UniProt Q92769); experiment: Fluorogenic HDAC inhibition assay, HDAC2 (Boc-L-Lys(Ac)-AMC substrate); type: biochemical; settings: for IC50: maximum preincubation time 24 h
T1 construct: purchased BPS Bioscience
T1 sequence (Q92769 whole entry): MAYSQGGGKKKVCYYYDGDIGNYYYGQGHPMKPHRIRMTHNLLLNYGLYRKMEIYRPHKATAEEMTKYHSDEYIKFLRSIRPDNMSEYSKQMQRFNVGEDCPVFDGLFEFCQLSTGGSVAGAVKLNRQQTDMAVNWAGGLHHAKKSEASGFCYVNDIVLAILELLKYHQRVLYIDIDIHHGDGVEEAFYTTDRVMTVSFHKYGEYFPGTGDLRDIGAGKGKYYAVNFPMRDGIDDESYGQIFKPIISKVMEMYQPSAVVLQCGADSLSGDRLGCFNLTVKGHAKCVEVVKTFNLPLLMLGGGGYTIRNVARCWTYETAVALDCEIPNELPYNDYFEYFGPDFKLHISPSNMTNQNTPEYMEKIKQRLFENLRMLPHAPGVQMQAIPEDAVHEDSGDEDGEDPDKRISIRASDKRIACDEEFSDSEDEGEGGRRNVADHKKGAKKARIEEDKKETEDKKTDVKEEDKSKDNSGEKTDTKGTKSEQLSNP
Procedure: (§1) 10 μL of the enzyme stock was added to 30 μL of the probes and preincubated for different preincubation times.

[1] = molecular target: recombinant His-tagged HDAC2 (Homo sapiens, UniProt Q92769); experiment: Photoaffinity labeling (photocrosslinking) of HDAC2 with TSA competition, biotin tag, streptavidin-HRP western blot; type: binding; settings: probe 25 μM, HDAC2 1.25 μM, Trichostatin A 125 μM (5-fold molar excess), 24 h, 254 nm UV
recombinant His-tagged HDAC2, sequence (Q92769 whole entry): as above
Procedure: Photoaffinity labeling studies were conducted with the probes using commercially available recombinant His-tagged HDAC2. […] The loading was confirmed by using nickel-HRP, which recognized the His-tag of the recombinant HDAC2 protein.
500 μM of DBCO-PEG4-biotin conjugate (Click Chemistry tools) in photolabeling buffer was added to initiate the [3+2] cycloaddition reaction with HDAC2-probe adduct. The cycloaddition reaction was carried out for 3 h at room temperature. Western blotting was done with 1.5 ug of purified protein with 5× loading buffer containing 10% SDS, 0.05% bromophenol blue, 50% glycerol, and β-mercaptoethanol. […] After electrophoresis, protein was transferred to a polyvinylidiene difluoride membrane (Iblot-Invitrogen). The membrane was incubated for 12 h with 5% albumin fraction V (Sigma-aldrich) in 1× Tris based saline supplemented with 0.1% Tween-20 (TBS-T). The membrane was washed three times with TBST and then incubated with Ni-HRP (1:2000) in TBST for 1 h under room temperature with slight agitation. After three washes in TBS-T, the chemilumiscent signal was detected using the enhanced chemiluminescence (ECL) kit from Pierce (Pierce Biotechnology, Rockford, Ill.). […] After three washes in PBST and water, the chemilumiscent signal was detected using the enhanced chemiluminescence (ECL) kit from Pierce (Pierce Biotechnology, Rockford, Ill.).

[2] = molecular target: T2, purified recombinant human HDAC8 from E. coli (Homo sapiens, UniProt Q9BY41); experiment: Fluorogenic HDAC inhibition assay, HDAC8 (Fluor de Lys substrate); type: biochemical; settings: 10 μM inhibitor, preincubation 3 h
T2 construct: made in house; host or cells: E. coli
T2 sequence (Q9BY41 1-377): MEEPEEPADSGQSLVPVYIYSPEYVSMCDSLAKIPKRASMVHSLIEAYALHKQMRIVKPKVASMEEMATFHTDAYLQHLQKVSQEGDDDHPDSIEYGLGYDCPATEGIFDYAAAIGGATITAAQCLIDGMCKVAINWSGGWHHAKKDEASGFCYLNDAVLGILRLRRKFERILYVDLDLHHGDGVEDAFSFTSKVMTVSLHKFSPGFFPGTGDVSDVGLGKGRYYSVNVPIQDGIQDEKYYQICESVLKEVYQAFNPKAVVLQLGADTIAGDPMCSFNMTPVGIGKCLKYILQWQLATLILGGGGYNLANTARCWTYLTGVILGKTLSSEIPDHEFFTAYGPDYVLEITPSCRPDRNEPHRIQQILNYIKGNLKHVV
Procedure: as §1

IC50 (recombinant human HDAC2): 750 nM
Compound: [N-]=[N+]=NCCOc1ccc(C(=O)Nc2cc(-c3cccs3)ccc2N)cc1N=[N+]=[N-] [probe 1f, N-(2-amino-5-(thiophen-2-yl)phenyl)-3-azido-4-(2-azidoethoxy)benzamide]

IC50 (recombinant human HDAC2): 830 nM | increase in inhibition of HDAC2 upon preincubation (IC50 ratio) (recombinant human HDAC2; preincubation 24 h vs 5 min): 41 fold
Compound: [N-]=[N+]=NCCOc1ccc(C(=O)Nc2cc(-c3ccccc3)ccc2N)cc1N=[N+]=[N-] [probe 1e, N-(4-amino-[1,1′-biphenyl]-3-yl)-3-azido-4-(2-azidoethoxy)benzamide]

decrease in biotinylation of HDAC2 in the presence of competing ligand [1]: slightly less pronounced
Compound: [N-]=[N+]=NCCC(=O)Nc1ccc(C(=O)Nc2cc(N=[N+]=[N-])ccc2N)cc1 [probe 1g, N-(2-amino-5-azidophenyl)-4-(3-azidopropanamido)benzamide]

inhibition of HDAC8 [2]: inactive | inhibition of HDAC8 ([2]; 10 µM): did not inhibit
Compound: [N-]=[N+]=Nc1cccc(COC(=O)NCc2ccc(C(=O)Nc3cc(-c4ccccc4)ccc3N)cc2)c1 [probe 2a, 3-azidobenzyl 4-((4-amino-[1,1′-biphenyl]-3-yl)carbamoyl)benzylcarbamate]
